Columns and labels:
SIRT1 = biological target: T1, SIRT1 (Mus musculus, UniProt Q923E4); assay: SIRT1 activation action (in vivo), cerebral cortex lysate, SIRT1_GLO kit; conditions: SAMP8 mice, single oral dose, 180 minutes after administration; FIG. 2
T1 construct: from tissue; host or cells: cerebral cortex of SAMP8 mice
T1 sequence (Q923E4 1-737): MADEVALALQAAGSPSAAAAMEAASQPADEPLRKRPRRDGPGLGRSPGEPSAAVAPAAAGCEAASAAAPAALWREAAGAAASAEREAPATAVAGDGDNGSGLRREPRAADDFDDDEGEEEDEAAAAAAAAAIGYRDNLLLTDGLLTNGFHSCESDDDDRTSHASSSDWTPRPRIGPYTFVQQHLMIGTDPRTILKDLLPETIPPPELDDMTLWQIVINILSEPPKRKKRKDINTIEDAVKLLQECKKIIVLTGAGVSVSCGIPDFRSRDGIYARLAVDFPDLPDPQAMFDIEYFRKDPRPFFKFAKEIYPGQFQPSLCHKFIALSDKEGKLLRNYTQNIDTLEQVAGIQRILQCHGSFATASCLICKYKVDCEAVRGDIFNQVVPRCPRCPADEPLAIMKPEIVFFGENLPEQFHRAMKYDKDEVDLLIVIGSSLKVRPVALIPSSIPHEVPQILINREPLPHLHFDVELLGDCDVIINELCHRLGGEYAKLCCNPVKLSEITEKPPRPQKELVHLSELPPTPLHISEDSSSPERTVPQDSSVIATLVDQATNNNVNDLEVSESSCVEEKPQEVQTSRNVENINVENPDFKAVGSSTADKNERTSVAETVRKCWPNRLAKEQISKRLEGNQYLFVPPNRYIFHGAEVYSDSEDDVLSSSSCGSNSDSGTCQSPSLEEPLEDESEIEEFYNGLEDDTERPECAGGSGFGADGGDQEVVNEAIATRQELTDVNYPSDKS
Procedure: (§1) (a) About 5 mg of S-1-propenylcysteine (cis/trans mixture) produced in Preparation Example 2 was weighed precisely, and dissolved in 10 mL of purified water to prepare an administration liquid. (b) About 6 mg of S-1-propenylcysteine (cis/trans mixture) produced in Preparation Example 2 was weighed precisely and dissolved in 1 mL of culture liquid. The liquid was used as a stock solution, diluted appropriately, and subjected to an in vitro test.
(§2) Animals for evaluating the biological activity were bred as follows. Senescence-accelerated mice SAMP8 (male) for testing were purchased from Japan SLC, Inc. After purchase, the animals were acclimatized for one week and used as animals for the evaluation tests.
A SIRT1_GLO kit manufactured by Promega Corporation was purchased to measure the sirtuins activity. A lysate of the cerebral cortex was placed in a 96-well plate, various reaction reagents were added, and then luminous intensity of luciferase was measured by a plate reader.
A single dose of the sample prepared in the above (1) (a) was orally administrated to animals for the evaluation tests in the above (2), and then cerebral cortices of such animals were extracted 15, 30, 60, and 180 minutes later. […] Centrifugation was performed and the sirtuins activity in the supernatant thereof was measured. […]

SIRT1 protein [1] = assay: SIRT1 protein increasing action (in vivo), hippocampus, Western Blotting; conditions: SAMP8 mice, repeated oral administration for two weeks; FIG. 3
Procedure: as §1, §2
(§3) After repeated oral administration of the sample prepared in the above (1) (a) to animals for the evaluation tests in the above (2) for two weeks, hippocampi of such animals were excised. After the hippocampi were crushed using an automatic tissue crusher, the cells were lysed with a RIPA cell lysis buffer manufactured by Millipore Corporation which was diluted 10-fold with purified water added with combined protease/phosphatase inhibitors manufactured by Thermo Fisher Scientific K.K., and then centrifuged (10,000 rpm, 10 min, 4° C.), and the supernatant was used as a cell extract. The cell extract was used for analysis by Western Blotting according to a conventional method. […]

NAD^+ [2] = assay: NAD+ amount increasing action (in vivo), NAD+/NADH Assay Kit; conditions: SAMP8 mice, single oral dose (180 minutes later) and mixed with food for one month; FIG. 4
Procedure: as §1, §2
A single dose of the sample prepared in (1) (a) was orally administered to animals for the evaluation tests in the above (2), and then cerebral cortices of such animals were excised 180 minutes later. In addition, the sample prepared in the above (1) (a) was mixed with food and fed to animals for the evaluation tests in the above (2) for one month, and then cerebral cortices of such animals were excised. The NAD^+ amount in the cerebral cortices was measured using NAD^+/NADH Assay Kit manufactured by Dojindo Laboratories. S-1-propenylcysteine increased NAD^+ amount.

p53 protein = assay: Suppression of cellular senescence marker p53 protein in the hippocampus (in vivo); conditions: SAMP8 mice, repeated oral administration for six weeks; FIG. 5
Procedure: as §1, §2
as §3, with “six” for “two”, “a protease inhibitor and a phosphatase inhibitor” for “combined protease/phosphatase inhibitors”, “Roche,” for “Thermo Fisher Scientific K.K.,”

SIRT1 gene = assay: Enhancement of SIRT1 gene expression in kidney (in vivo), real-time PCR; conditions: SAMP8 mice, repeated oral administration for two weeks, FIG. 6
Procedure: as §1, §2
(§4) After repeated oral administration of the sample prepared in the above (1) (a) to the animals for the evaluation tests in the above (2) for two weeks, kidneys of such animals were excised. The kidneys were crushed using an automatic tissue crusher, and then RNA was extracted using a TRIzol solution manufactured by Thermo Fisher Scientific K.K. CDNA was synthesized using PRIMEScript RT reagent Kit with gEraser manufactured by Takara. The synthesized CDNA was subjected to real-time PCR using KAPA SYBR Fast qPCR kit manufactured by Nippon Genetics Co., Ltd. The results are shown in FIG. 6. S-1-propenylcysteine increased the SIRT1 expression in the mouse kidney.

p16 gene = assay: Suppression of senescent cell marker p16 gene expression in the kidney (in vivo); conditions: SAMP8 mice, repeated oral administration for two weeks, real-time PCR; FIG. 7
Procedure: as §1, §2
as §4, with “synthesized cDNA” for “synthesized CDNA”, “FIG. 7. […]” for “FIG. 6. S-1-propenylcysteine increased the SIRT1 expression in the mouse kidney.”

p21 gene = assay: Suppression of senescent cell marker p21 gene expression in the kidney (in vivo); conditions: SAMP8 mice, repeated oral administration for two weeks, real-time PCR; FIG. 7
Procedure: as §1, §2
as §4, with “synthesized cDNA” for “synthesized CDNA”, “FIG. 7. […]” for “FIG. 6. S-1-propenylcysteine increased the SIRT1 expression in the mouse kidney.”

KIM-1 = assay: Inhibitory action on kidney injuries (in vivo), KIM-1 Western Blotting; conditions: SAMP8 mice, repeated oral administration for two weeks, FIG. 8
Procedure: as §1, §2
(§5) After repeated oral administration of the sample prepared in the above (1) (a) to the animals for the evaluation tests in the above (2) for two weeks, kidneys of such animals were excised. After the kidneys were crushed using an automatic tissue crusher, the cells were lysed with an RIPA cell lysis buffer manufactured by Millipore Corporation which was diluted 10-fold with purified water added with a protease inhibitor and a phosphatase inhibitor manufactured by Roche and then centrifuged (10,000 rpm, 10 min, 4° C.), and the supernatant was used as a cell extract. The cell extract was used for analysis by Western Blotting according to a conventional method. […]

lipocalin-2 (NGAL) = assay: Inhibitory action on kidney injuries (in vivo), NGAL Western Blotting; conditions: SAMP8 mice, repeated oral administration for two weeks, FIG. 8
Procedure: as §1, §2, §5

[3] = test system: Senescence-accelerated mice SAMP8; assay: Cognitive/memory retention action (in vivo), passive avoidance test; conditions: mixed with food for four months, holding trial after two months, FIG. 9
Procedure: as §1, §2
The sample prepared in the above (1) (a) was mixed with food and fed to animals for evaluation test in the above (2) for four months, and then a passive avoidance test was performed. The passive avoidance test is a test utilizing a habit that a mouse prefers a dark place, and on Day 1, a mouse already in a bright room was moved to a dark room while receiving an electrical shock (50 V/1 second), and the time it took for the mouse to enter the dark room was taken as response latency of an acquisition trial. After two months, the mouse was put in the bright room again and the time it took to move to the dark room (the response latency of a holding trial) was used as an index of memory.

NAD^+ [4] = assay: NAD+ amount increasing action in kidney, skeletal muscle, and liver (in vivo); conditions: SAMP8 mice, single oral dose, 60 minutes later; FIG. 10
Procedure: as §1, §2
A single dose of the sample prepared in the above (1) (a) was orally administrated to animals for the evaluation tests in the above (2), and then cerebral cortexes, livers, kidneys, and skeletal muscles of such animals were extracted 60 minutes later. The NAD^+ amounts in the cerebral cortexes, livers, kidneys, and skeletal muscles were measured using NAD^+/NADH Assay Kit manufactured by Dojindo Laboratories. S-1-propenylcysteine increased the NAD^+ amount.

SIRT1 protein [5] = assay: SIRT1 protein increasing action in cerebral cortex, hippocampus, heart, lung, liver, kidney, and skeletal muscle (in vivo); conditions: SAMP8 mice, about 10 mg in 10 mL liquid, repeated oral administration for two weeks; FIG. 11
Procedure: as §2
About 10 mg of S-1-propenylcysteine (cis/trans mixture) produced in Preparation Example 2 was weighed precisely, and dissolved in 10 mL of purified water to prepare an administration liquid. After repeated oral administration of the prepared sample to animals for the evaluation tests in the above (2) for two weeks, cerebral cortexes, hippocampi, hearts, lungs, livers, kidneys, and skeletal muscles of such animals were excised. After the cerebral cortexes, hippocampi, hearts, lungs, livers, kidneys, and skeletal muscles were crushed using an automatic tissue crusher, the cells were lysed with a RIPA cell lysis buffer manufactured by Millipore Corporation which was diluted 10-fold with purified water added with combined protease/phosphatase inhibitors manufactured by Thermo Fisher Scientific K.K., and then centrifuged (10,000 rpm, 10 min, 4° C.), and the supernatant was used as a cell extract. The cell extract was used for analysis by Western Blotting according to a conventional method. […]

SIRT1 protein [6] = assay: SIRT1 protein increasing action in hypothalamus (in vivo); conditions: SAMP8 mice fed diet mixed with sample (0.001% liquid) for 10 months; FIG. 12
Procedure: S-1-propenylcysteine (cis/trans mixture) produced in Preparation Example 2 was dissolved at a concentration of 0.001% in purified water to prepare an administration liquid. Animals for evaluating the biological activity were bred as follows. Senescence-accelerated mice SAMR1 (male) and SAMP8 (male) for testing were purchased from Japan SLC, Inc. After purchase, the animals were acclimatized for one week and used as animals for the evaluation tests. These animals for the evaluation tests were fed with regular diet and SAMP8 were fed with the diet mixed with the sample prepared above for 10 months, and then hypothalamuses of such animals were excised. After the hypothalamuses were crushed using an automatic tissue crusher, the cells were lysed with a RIPA cell lysis buffer manufactured by Millipore Corporation which was diluted 10-fold with purified water added with combined protease/phosphatase inhibitors manufactured by Thermo Fisher Scientific K.K., and then centrifuged (10,000 rpm, 10 min, 4° C.), and the supernatant was used as a cell extract. The cell extract was used for analysis by Western Blotting according to a conventional method. An anti-SIRT1 antibody (manufactured by Biolegend) and an anti-β-actin antibody (manufactured by Fujifilm Wako Pure Chemical Corporation) were used as antibodies. S-1-propenylcysteine increased the SIRT1 protein mass.

SIRT1 protein [7] = assay: SIRT1 protein amount-increasing effect in liver and heart (in vivo); parameters: species or system mice; conditions: animals prepared as in (12) (SAMR1, SAMP8), repeated oral administration for two weeks; FIG. 13

Q: With `CC=CSC[C@H](N)C(=O)O` [S-1-propenylcysteine] as the compound, how does the “sirtuin activity in cerebral cortex” value (SIRT1) read?
A: increased

Q: And the “SIRT1 protein mass in hippocampus” value (SIRT1 protein [1])?
A: increased

Q: What about the “NAD^+ amount in cerebral cortices” value (NAD^+ [2]) of the same compound?
A: increased

Q: What about the “p53 protein mass in hippocampus” value (p53 protein) of the same compound?
A: reduced

Q: What about the “SIRT1 expression in kidney” value (SIRT1 gene) of the same compound?
A: increased

Q: And the “cells expressing p16 gene in the kidneys” value (p16 gene)?
A: reduced

Q: And the “cells expressing p21 gene in the kidneys” value (p21 gene)?
A: reduced

Q: What about the “KIM-1 (marker of kidney injuries) in kidney” value (KIM-1) of the same compound?
A: reduced

Q: What about the “NGAL (marker of kidney injuries) in kidney” value (lipocalin-2 (NGAL)) of the same compound?
A: reduced

Q: What about the “cognitive and memory functions (response latency, passive avoidance test)” value [3] of the same compound?
A: ameliorated aging-related decline in cognitive and memory functions

Q: And the “NAD^+ amount in cerebral cortexes, livers, kidneys, and skeletal muscles” value (NAD^+ [4])?
A: increased

Q: And the “SIRT1 protein mass in cerebral cortexes, hippocampi, hearts, lungs, livers, kidneys, and skeletal muscles” value (SIRT1 protein [5])?
A: increased

Q: And the “SIRT1 protein mass in hypothalamus” value (SIRT1 protein [6])?
A: increased

Q: And the “SIRT1 protein mass in livers and hearts” value (SIRT1 protein [7])?
A: increased

Reference: US20260124167A1, “SIRTUIN ACTIVATOR OR EXPRESSION ENHANCER, NAD+ INCREASING AGENT, AND SENESCENT CELL INHIBITOR” (WAKUNAGA PHARMACEUTICAL CO., LTD., priority 2022, published 2026)
